Series [1] relates to monkeys. Put plainly: BuTAC-induced emesis and its inhibition by domperidone. In kind it is in vivo, Cebus Apella. To be noted: BuTAC 0.01 mg/kg alone; observed 300 minutes. How it is done:
S1 Table. Emesis BuTAC / Domperidone
BuTAC 0.01 mg/kg / 1 in 7
Domperidone was purchased from Tocris Bioscience (Bristol, United Kingdom) and dissolved
in 0.9% saline. The compound was administered subcutaneously where after the animals

Series [2] has as its target M3AChR (Homo sapiens, UniProt P20309). Put plainly: Competitive radioligand binding.
Series [3] concerns the target T1, human M4 muscarinic receptor (Homo sapiens, UniProt P08173).
T1 construct: purchased PerkinElmer Life and Analytical Sciences, Boston, MA
T1 sequence (P08173 1-479): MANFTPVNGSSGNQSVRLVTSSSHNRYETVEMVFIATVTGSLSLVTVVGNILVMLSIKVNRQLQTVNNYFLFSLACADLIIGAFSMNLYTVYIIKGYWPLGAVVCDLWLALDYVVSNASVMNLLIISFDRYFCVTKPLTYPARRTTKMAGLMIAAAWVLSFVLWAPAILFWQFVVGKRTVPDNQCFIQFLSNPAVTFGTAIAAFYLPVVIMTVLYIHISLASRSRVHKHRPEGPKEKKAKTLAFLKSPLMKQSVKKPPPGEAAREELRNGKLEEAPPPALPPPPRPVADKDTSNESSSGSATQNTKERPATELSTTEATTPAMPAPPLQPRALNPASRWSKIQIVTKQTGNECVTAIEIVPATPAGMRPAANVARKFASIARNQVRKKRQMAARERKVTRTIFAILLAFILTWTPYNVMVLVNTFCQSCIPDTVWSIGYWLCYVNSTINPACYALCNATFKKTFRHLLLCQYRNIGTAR
The experiment in a line: GTP-γ-[35S] binding, antibody capture SPA (agonist and antagonist mode). The class given is biochemical. How it is done:
(§1) The antibody capture scintillation proximity technique previously described by DeLapp et al was used in a 96-well plate to determine GTP-γ-[35S] binding. One hundred μl (20–40 fmol/well) of membrane preparation from CHO cells that stably express the human M1-M5 muscarinic receptors (PerkinElmer Life and Analytical Sciences, Boston, MA) were incubated with varying concentration of test compound (final concentrations from 50pM to 1μM) for 30 min. One μM final concentration of GDP was added to M2 and M4 receptor membranes before incubation. […] (500 pM final concentration; Perkin Elmer Life and Analytical Sciences) was added to each well followed by 30 min of incubation. […] An anti-Gαq/11 antibody was used for the M1-, M3-, and M5 membranes, whereas an anti-Gαi-3 antibody was used for the M2- and M4 membranes (Eli Lilly and Company, Indianapolis, IN). […] By use of a Wallac MicroBeta TriLux scintillation counter (PerkinElmer), the plates were centrifuged for 10 min at 700 × g and counted for 1 min per well. The incubations took place at room temperature in GTP-binding assay buffer (20 mM Hepes, 100 mm NaCl, 5 mM MgC12, pH 7.4). The data were analyzed by use of nonlinear regression for a sigmoidal concentration response curve (GraphPad Prism v. 4.0). Data were normalized to a full agonist response (100 μM oxotremorine-M). […] The antagonist percent inhibition data were normalized to data generated with an EC90 concentration of acetylcholine. The mean relative EC50, IC50, and %Emax, and pKi values were calculated as a mean of at least three independent experiments±SEM. In order to obtain relevant comparisons between subtypes, the experimental system is routinely calibrated with reference agonists (oxotremorine-M, pilocarpine, MCN-A343) to measure full and partial agonism as well as to ensure that the system is not under- or over-reporting functional efficacies. The radioligand binding assays have earlier been described.
(GTPγS resists hydrolysis and so accumulates on activated G proteins.)

Series [4] addresses T2, human M5 muscarinic receptor (Homo sapiens, UniProt P08912).
T2 construct: purchased PerkinElmer Life and Analytical Sciences, Boston, MA
T2 sequence (P08912 1-532): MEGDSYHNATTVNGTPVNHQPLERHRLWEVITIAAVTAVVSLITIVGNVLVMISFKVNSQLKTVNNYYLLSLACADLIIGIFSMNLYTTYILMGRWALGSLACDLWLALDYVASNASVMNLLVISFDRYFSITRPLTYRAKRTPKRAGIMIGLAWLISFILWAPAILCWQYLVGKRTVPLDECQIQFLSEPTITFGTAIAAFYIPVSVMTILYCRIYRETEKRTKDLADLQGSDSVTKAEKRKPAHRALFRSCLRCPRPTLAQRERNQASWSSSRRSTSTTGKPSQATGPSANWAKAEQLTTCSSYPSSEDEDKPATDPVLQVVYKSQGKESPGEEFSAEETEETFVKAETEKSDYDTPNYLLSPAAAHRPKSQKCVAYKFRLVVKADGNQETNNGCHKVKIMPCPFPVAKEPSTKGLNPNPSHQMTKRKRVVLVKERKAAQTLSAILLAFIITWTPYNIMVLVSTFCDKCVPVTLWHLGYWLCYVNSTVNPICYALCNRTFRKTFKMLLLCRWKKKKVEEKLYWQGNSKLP
Described as above. The class given is biochemical. How it is done: as §1

In series [5] the target is T3, human M1 muscarinic receptor (Homo sapiens, UniProt P11229).
T3 construct: purchased PerkinElmer Life and Analytical Sciences, Boston, MA
T3 sequence (P11229 1-460): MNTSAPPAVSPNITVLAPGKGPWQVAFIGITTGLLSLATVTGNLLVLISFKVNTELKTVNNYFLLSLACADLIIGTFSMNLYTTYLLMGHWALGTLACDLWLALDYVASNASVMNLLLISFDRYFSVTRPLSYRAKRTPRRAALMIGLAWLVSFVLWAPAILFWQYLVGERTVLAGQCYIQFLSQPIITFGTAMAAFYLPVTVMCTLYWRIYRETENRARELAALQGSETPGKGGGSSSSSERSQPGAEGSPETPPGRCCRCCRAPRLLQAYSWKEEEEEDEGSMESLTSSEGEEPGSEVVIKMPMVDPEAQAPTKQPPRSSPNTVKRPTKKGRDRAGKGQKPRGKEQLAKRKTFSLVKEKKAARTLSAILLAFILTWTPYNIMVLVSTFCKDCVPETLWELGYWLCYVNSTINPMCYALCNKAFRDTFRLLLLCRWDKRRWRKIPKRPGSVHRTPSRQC
Described as above. In kind it is biochemical. The procedure: as §1

Series [6] deals with T4, M1AChR (Homo sapiens, UniProt P11229).
T4 sequence (P11229 1-460): T3 sequence (P11229 1-460)
Put plainly: Competitive radioligand binding.

Setting [7] is: antagonist mode, maximal inhibition of EC90 agonist response.

Sequence of M3AChR (P20309 whole entry): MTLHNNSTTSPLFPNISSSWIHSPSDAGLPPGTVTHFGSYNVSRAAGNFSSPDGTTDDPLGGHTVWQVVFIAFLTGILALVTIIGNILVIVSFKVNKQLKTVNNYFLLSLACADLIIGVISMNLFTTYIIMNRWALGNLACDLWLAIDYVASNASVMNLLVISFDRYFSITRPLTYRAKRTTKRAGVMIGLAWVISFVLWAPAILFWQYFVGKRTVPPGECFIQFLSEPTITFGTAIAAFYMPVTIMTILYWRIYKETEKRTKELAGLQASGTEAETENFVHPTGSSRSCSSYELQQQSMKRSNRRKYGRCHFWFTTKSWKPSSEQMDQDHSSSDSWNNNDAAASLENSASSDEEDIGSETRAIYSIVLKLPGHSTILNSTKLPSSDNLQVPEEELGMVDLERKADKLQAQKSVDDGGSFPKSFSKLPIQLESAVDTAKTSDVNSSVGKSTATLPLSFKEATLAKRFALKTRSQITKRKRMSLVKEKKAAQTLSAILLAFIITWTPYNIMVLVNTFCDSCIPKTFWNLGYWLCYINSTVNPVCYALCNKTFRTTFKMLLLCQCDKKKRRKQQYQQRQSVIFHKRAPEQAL

Turning to `CCCCSc1nsnc1[C@H]1CN2CCC[C@H]1C2` [BuTAC, (5R,6R)-6-(3-butylthio-1,2,5-thiadiazol-4-yl)-1-azabicyclo[3.2.1]octane], the “Emetic events (vomiting), monkeys with emesis” value in series [1] is reported as 7/7.
As for `CCCSc1nsnc1[C@H]1CN2CCC[C@H]1C2` [PTAC, (5R,6R) 6-(3-propylthio-1,2,5-thiadiazol-4-yl)-1-azabicyclo-[3.2.1]-octane], the Ki in series [2] was 0.398 nM; in series [6] it was 1.05 nM. For the same compound, the EC50 was 1.48 nM in series [3], 15.5 nM in series [4] and 0.372 nM in series [5]. Further, the Emax in series [3] is 19.4 ± 0.52%; in series [4] it was 15.4 ± 2.73%; in series [5] (percentage of maximum 100 μM oxotremorine-M signal) it was 38.1 ± 9.94%. Moreover, the IC50 was 24.5 nM in series [3]; 107 nM in series [4] (antagonist mode against EC90 of agonist, negative log-transformed, read-out: Rel pIC50 (converted)); 0.933 nM in series [5]. Besides, the results for the “% Inhibition” value in series [3] (setting [7]), in series [4] (setting [7]) and in series [5] (setting [7]) were 92.7 ± 7.49%, 87.3 ± 7.07% and 54.3 ± 1.70%, respectively.

Usually Ki stands for a dissociation constant, usually derived from enzyme kinetics or from competition with a known ligand. A high value points to lower affinity. One may read the EC50 as the concentration at which the effect is half-maximal. A lower EC50 goes with higher potency in that assay. For orientation: Emax means the greatest response seen or fitted, relative to the assay's reference. What is called % Inhibition is the share of the control response that was lost under treatment.

For the origin of these results see paper PMC4399838, “Antipsychotic-Like Effect of the Muscarinic Acetylcholine Receptor Agonist BuTAC in Non-Human Primates” (PLoS ONE, 2015).
